Measured values: ChEMBL document CHEMBL1147353, “The Isolation of Majusculamide C from the Sponge Ptilocaulis trachys Collected in Enewetak and Determination of the Absolute Configuration of the 2-Methyl-3-aminopentanoic Acid Residue” (1993)
Values after ≈ are worked out from the molar mass of the structure shown. Numbered stars: 1 amine (or outer) side, 2 acyl side, 3 side chain; on linkers, the order of the positions; unused ones are H or OH. Square brackets hold non-standard residues; d marks the D form. Peptide text beside a SMILES is read from it. X1 = CC[C@H](C)[C@H](OC(=O)[C@@H](C)[C@@H](CC)N[*:1])C(=O)[*:2]; X2 = C[C@H](N[*:1])C(=O)C(C)(C)C(=O)[*:2]; NMeY = CN[C@@H](Cc1ccc(O)cc1)C(=O)O; NMeF = CN[C@@H](Cc1ccccc1)C(=O)O; NMeL = CN[C@@H](CC(C)C)C(=O)O; NMeV = CN[C@H](C(=O)O)C(C)C; NMeA = CN[C@@H](C)C(=O)O

System: P388
Experiment: Cytotoxicity against mouse P388 cells
Format: functional
Settings: read-out: ED50 (the source's name)

| SMILES | EC50 [µg/mL] |
| --- | --- |
| CC[C@H](C)[C@@H]1OC(=O)[C@@H](C)[C@@H](CC)NC(=O)[C@H](C)NC(=O)C(C)(C)C(=O)[C@H](C)NC(=O)[C@H](Cc2ccc(OC)cc2)N(C)C(=O)[C@H](C(C)C)N(C)C(=O)CNC(=O)[C@H](CC(C)C)N(C)C(=O)CNC1=O [DOLASTATIN 11] (cyclo(A[X1]G[NMeL]G[NMeV][NMeY](Me)[X2])) | 0.0027 (≈ 0.00274 µM) |
| CC[C@H](C)[C@@H]1OC(=O)[C@@H](C)[C@@H](CC)NC(=O)[C@H](C)N(C)C(=O)C(C)(C)C(=O)[C@H](C)NC(=O)[C@H](Cc2ccccc2)N(C)C(=O)[C@H](C(C)C)N(C)C(=O)CNC(=O)[C@H](CC(C)C)N(C)C(=O)CNC1=O [DOLASTATIN 12] (cyclo(G[NMeL]G[NMeV][NMeF][X2][NMeA][X1])) | 0.075 (≈ 0.0774 µM) |
